Laboratory results published in US10752588B2 (The Broad Institute, Inc., priority 2014, dated 2020).
pEC50, pIC50: −log10 of the molar value. Read-outs that look alike come from different tables or passages of the source.

Experiments:
[1] = target: T1, human D2R/β-arrestin (Homo sapiens (Human), UniProt P14416); assay: β-Arrestin agonist assay (PathHunter); format: cell-based; conditions: CHO-K1 cell line expressing human D2R/β-arrestin
Summary of the method: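 After compound incubation, detection reagent (Buffer:Emerald II:Galactor-Star, 19:5:1) added and luminescence or fluorescence read.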

[2] = Microsomal stability, mouse
[3] = target: T1, human D2R/β-arrestin; conditions: read-out: cAMP Antagonist
[4] = target: T1, human D2R/β-arrestin; assay: Gi/cAMP agonist assay (Lance Ultra cAMP, Forskolin); format: cell-based; conditions: CHO-K1 cell line expressing human D2R/β-arrestin
Summary of the method: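 Cells were plated and incubated before compounds were pin-transferred and incubated for 10 min at 37 °C. Forskolin was then added to stimulate cAMP. cAMP was detected by Lance Ultra TR-FRET using Eu-cAMP tracer and ULight-anti-cAMP antibody.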

[5] = target: T1, human D2R/β-arrestin; conditions: read-out: β-arrestin Antagonist

T1 sequence (P14416 whole entry): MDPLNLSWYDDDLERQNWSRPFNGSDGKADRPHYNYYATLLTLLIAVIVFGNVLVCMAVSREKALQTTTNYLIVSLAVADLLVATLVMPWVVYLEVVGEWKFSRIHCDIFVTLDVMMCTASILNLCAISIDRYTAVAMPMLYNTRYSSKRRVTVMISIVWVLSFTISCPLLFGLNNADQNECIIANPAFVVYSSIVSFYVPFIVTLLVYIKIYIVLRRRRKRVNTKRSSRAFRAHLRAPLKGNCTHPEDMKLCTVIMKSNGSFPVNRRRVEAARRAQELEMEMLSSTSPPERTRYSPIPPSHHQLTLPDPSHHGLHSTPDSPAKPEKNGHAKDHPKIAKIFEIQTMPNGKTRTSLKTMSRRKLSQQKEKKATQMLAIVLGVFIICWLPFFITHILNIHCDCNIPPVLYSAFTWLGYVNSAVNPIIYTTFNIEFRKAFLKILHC

| SMILES | pEC50 [1] | Microsomal Stability: % remaining after 60 minutes [2] | pIC50 [3] | pEC50 [4] | pIC50 [5] |
| --- | --- | --- | --- | --- | --- |
| O=C(NC(c1ccc(Cl)cc1)c1ccccn1)C1CCN(CCOc2ccccc2C(F)(F)F)CC1 (single isomer, unassigned) [Compound 6b] | < 4.52 | m2% | > 7.00 | < 4.52 | > 7.00 |
| O=C(NC(c1cccc(OC(F)(F)F)c1)c1ccccn1)C1CCN(CCOc2ccccc2)CC1 (single isomer, unassigned) [Compound 118b, 1-(2-phenoxyethyl)-N-(pyridin-2-yl(3-(trifluoromethoxy)phenyl)methyl) piperidine-4-carboxamide] | < 4.52 | m35% | < 4.52 | 5.00 to 6.00 | 5.00 to 6.00 |
| O=C(NC(c1ccc(Cl)cc1)c1ccccn1)C1CCN(CCOc2ccccc2C(F)(F)F)CC1 (single isomer, unassigned) [Compound 6a] | < 4.52 | m31% | > 7.00 | < 4.52 | > 7.00 |
| COc1cccc(C(NC(=O)C2CCN(CCOc3ccccc3F)CC2)c2ccccn2)c1 (single isomer, unassigned) [Compound 22b, 1-(2-(2-fluorophenoxy)ethyl)-N-((3-methoxyphenyl)(pyridin-2-yl)methyl) piperidine-4-carboxamide] | < 4.52 | m12% | 6.00 to 7.00 | < 4.52 | 6.00 to 7.00 |
| COc1cccc(C(NC(=O)C2CCN(CCOc3ccccc3F)CC2)c2ccccn2)c1 (single isomer, unassigned) [Compound 22a, 1-(2-(2-fluorophenoxy)ethyl)-N-((3-methoxyphenyl)(pyridin-2-yl)methyl) piperidine-4-carboxamide] | < 4.52 |  | 6.00 to 7.00 | 4.52 to 5.00 | 6.00 to 7.00 |
| O=C(NC(c1ccc(Cl)cc1)c1ccccn1)C1CCN(CCn2ccc(=O)cc2)CC1 (single isomer, unassigned) [Compound 11a] | < 4.52 |  | 5.00 to 6.00 | < 4.52 | 6.00 to 7.00 |
| O=C(NC(c1ccc(Cl)cc1)c1ccccn1)C1CCN(CCOc2ccc3cccnc3c2)CC1 (single isomer, unassigned) [Compound 16a] | 5.00 to 6.00 |  | < 4.52 | > 7.00 | < 4.52 |
| O=C(NC(c1ccc2c(c1)OCO2)c1ccccn1)C1CCN(CCOc2ccccc2F)CC1 (single isomer, unassigned) [Compound 95b, N-(benzo[d][1,3]dioxol-5-yl(pyridin-2-yl)methyl)-1-(2-(2-fluorophenoxy)ethyl) piperidine-4-carboxamide] | < 4.52 | m12% | 6.00 to 7.00 | 5.00 to 6.00 | 6.00 to 7.00 |
| CC1(C(=O)NC(c2ccc(F)cc2)c2ccccn2)CCN(CCOc2ccccc2C(F)(F)F)CC1 (single isomer, unassigned) [Compound 70a, N-((4-fluorophenyl)(pyridin-2-yl)methyl)-4-methyl-1-(2-(2-(trifluoromethyl)phenoxy)ethyl) piperidine-4-carboxamide] | < 4.52 |  | > 7.00 | < 4.52 | > 7.00 |
| CC1(C(=O)NC(c2ccc(F)cc2)c2ccccn2)CCN(CCOc2ccccc2C(F)(F)F)CC1 (single isomer, unassigned) [Compound 70b, N-((4-fluorophenyl)(pyridin-2-yl)methyl)-4-methyl-1-(2-(2-(trifluoromethyl)phenoxy)ethyl) piperidine-4-carboxamide] | < 4.52 | m0% | < 4.52 | > 7.00 | 5.00 to 6.00 |
| O=C(NC(c1ccc(Cl)cc1)c1ccccn1)C1CCN(CCOc2ccccc2F)CC1 (single isomer, unassigned) [Compound 3a] | < 4.52 |  | 6.00 to 7.00 | < 4.52 | 6.00 to 7.00 |
| O=C(NC(c1ccc(Cl)cc1)c1ccccc1F)C1CCN(CCOc2ccccc2F)CC1 (single isomer, unassigned) [Compound 96b, N-((4-chlorophenyl)(2-fluorophenyl)methyl)-1-(2-(2-fluorophenoxy)ethyl) piperidine-4-carboxamide] | < 4.52 |  | 6.00 to 7.00 | < 4.52 | 6.00 to 7.00 |
| O=C(NC(c1ccc(Cl)cc1)c1ccccn1)C1CCN(CCOc2cc(F)ccc2F)CC1 (single isomer, unassigned) [Compound 14b] | < 4.52 |  | 5.00 to 6.00 | < 4.52 | 6.00 to 7.00 |
| O=C(NC(c1ccc(Cl)cc1)c1ccccn1)C1CCN(CCOc2cccc(F)c2)CC1 (single isomer, unassigned) [Compound 4a] | 5.00 to 6.00 |  | < 4.52 | 6.00 to 7.00 | 5.00 to 6.00 |
| O=C(NC(c1ccc(F)cc1)c1ccc(Cl)cc1)C1CCN(CCOc2ccccc2)CC1 (single isomer, unassigned) [Compound 42a] | < 4.52 |  | 6.00 to 7.00 | 6.00 to 7.00 | 6.00 to 7.00 |
| O=C(NC(c1ccc(F)cc1)c1ccc(Cl)cc1)C1CCN(CCOc2ccccc2)CC1 (single isomer, unassigned) [Compound 42b] | < 4.52 |  | 5.00 to 6.00 | 4.52 to 5.00 | 5.00 to 6.00 |
| O=C(NC(c1ccc(Cl)cc1)c1ccccn1)C1CCN(CCOc2ccccc2F)CC1 (single isomer, unassigned) [Compound 3b] | < 4.52 |  | < 4.52 | > 7.00 | 6.00 to 7.00 |
| O=C(NC(c1ccc(F)cc1)c1ccccn1)C1CCN(CCOc2ccccc2C(F)(F)F)CC1 (single isomer, unassigned) [Compound 52b] | < 4.52 |  | 6.00 to 7.00 | < 4.52 | 6.00 to 7.00 |
| O=C(NC(c1ccccc1)c1ccc(F)cc1)C1CCN(CCOc2ccccc2)CC1 (single isomer, unassigned) [Compound 45b] | < 4.52 |  | 6.00 to 7.00 | 6.00 to 7.00 | 6.00 to 7.00 |
| O=C(NC(c1ccc(F)cc1)c1ccccn1)C1CCN(CCOc2ccccc2C(F)(F)F)CC1 (single isomer, unassigned) [Compound 52a] | < 4.52 |  | > 7.00 | < 4.52 | 6.00 to 7.00 |
| O=C(NC(c1ccc(F)cc1)c1ccccn1)C1CCN(CCOc2ccccc2Cl)CC1 (single isomer, unassigned) [Compound 53b, 1-(2-(2-chlorophenoxy)ethyl)-N-((4-fluorophenyl)(pyridin-2-yl)methyl) piperidine-4-carboxamide] | < 4.52 |  | 6.00 to 7.00 | < 4.52 | 6.00 to 7.00 |
| O=C(NC(c1cccc(F)c1)c1ccccn1)C1CCN(CCOc2ccccc2)CC1 (centres unmarked) [Compound 27] | < 4.52 |  | < 4.52 | 6.00 to 7.00 | 5.00 to 6.00 |
| O=C(NC(c1ccc(Cl)cc1)c1ccccc1F)C1CCN(CCOc2ccccc2)CC1 (single isomer, unassigned) [Compound 40b, N((4-chlorophenyl)(2-fluorophenyl)methyl)-1-(2-phenoxyethyl) piperidine-4-carboxamide] | < 4.52 |  | < 4.52 | 5.00 to 6.00 | 5.00 to 6.00 |
| O=C(NC(c1ccc(Cl)cc1)c1ccccc1F)C1CCN(CCOc2ccccc2)CC1 (single isomer, unassigned) [Compound 40a, N((4-chlorophenyl)(2-fluorophenyl)methyl)-1-(2-phenoxyethyl) piperidine-4-carboxamide] | < 4.52 |  | 6.00 to 7.00 | < 4.52 | 6.00 to 7.00 |
| O=C(NC(c1ccc(Cl)cc1)c1ccccn1)C1CCN(CCOc2ccc3cccnc3c2)CC1 (single isomer, unassigned) [Compound 16b] | < 4.52 |  | < 4.52 | 5.00 to 6.00 | < 4.52 |
| O=C(NC(c1ccc2c(c1)OCO2)c1ccccn1)C1CCN(CCOc2ccccc2F)CC1 (single isomer, unassigned) [Compound 95a, N-(benzo[d][1,3]dioxol-5-yl(pyridin-2-yl)methyl)-1-(2-(2-fluorophenoxy)ethyl) piperidine-4-carboxamide] | < 4.52 |  | 6.00 to 7.00 | < 4.52 | 6.00 to 7.00 |
| O=C(NC(c1ccc2c(c1)OC(F)(F)O2)c1ccccn1)C1CCN(CCOc2ccccc2)CC1 (single isomer, unassigned) [Compound 119a] | < 4.52 |  | 5.00 to 6.00 | < 4.52 | 5.00 to 6.00 |
| O=C(NC(c1ccc(Cl)cc1)c1ccccc1F)C1CCN(CCOc2ccccc2F)CC1 (single isomer, unassigned) [Compound 96a, N-((4-chlorophenyl)(2-fluorophenyl)methyl)-1-(2-(2-fluorophenoxy)ethyl) piperidine-4-carboxamide] | < 4.52 |  | < 4.52 | 5.00 to 6.00 | 5.00 to 6.00 |
| O=C(NC(c1ccccc1)c1ccc(F)cc1)C1CCN(CCOc2ccccc2)CC1 (single isomer, unassigned) [Compound 45a] | < 4.52 |  | 6.00 to 7.00 | < 4.52 | 6.00 to 7.00 |
